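Following 48 hours of exposure in 96-well plates, responses at five concentrations were used to interpolate endpoints linearly. The concentration for 50% growth inhibition is given as GI50.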 Activity calls are given as the source filed them. Rule as the data show it: active = GI50 up to about 1.1 µM and inactive = higher.
Key:
Test in all cases: growth of human tumour cells (NCI), 48 h
CAKI-1 = system: CAKI-1
CCRF-CEM = system: CCRF-CEM
DU-145 = system: DU-145
HL-60 = system: HL-60
HOP-62 = system: HOP-62
HOP-92 = system: HOP-92
HT-29 = system: HT-29
Hs-578T = system: Hs-578T
IGROV-1 = system: IGROV-1
LOX IMVI = system: LOX IMVI
MCF7 = system: MCF7
MDA-MB-231 = system: MDA-MB-231
Malme-3M = system: Malme-3M
SF-539 = system: SF-539
SK-OV-3 = system: SK-OV-3
SNB-75 = system: SNB-75
SW-620 = system: SW-620
U-251 = system: U-251
UO-31 = system: UO-31
SR = system: SR

SMILES	GI50 (CAKI-1)	GI50 (CCRF-CEM)	GI50 (DU-145)	GI50 (HL-60)	GI50 (HOP-62)	GI50 (HOP-92)	GI50 (HT-29)	GI50 (Hs-578T)	GI50 (IGROV-1)	GI50 (LOX IMVI)	GI50 (MCF7)	GI50 (MDA-MB-231)	GI50 (Malme-3M)	GI50 (SF-539)	GI50 (SK-OV-3)	GI50 (SNB-75)	GI50 (SW-620)	GI50 (U-251)	GI50 (UO-31)	GI50 (SR)
O=S1(=O)OC(c2ccc(O)cc2)(c2ccc(O)cc2)c2ccccc21 [PHENOLSULFONPHTHALEIN]	> 100 µM (inactive)	> 100 µM (inactive)	> 100 µM (inactive)	> 100 µM (inactive)	> 100 µM (inactive)	> 100 µM (inactive)	> 100 µM (inactive)	> 100 µM (inactive)	> 100 µM (inactive)	> 100 µM (inactive)	> 100 µM (inactive)	> 100 µM (inactive)	> 100 µM (inactive)	> 100 µM (inactive)	> 100 µM (inactive)	> 100 µM (inactive)	> 100 µM (inactive)	> 100 µM (inactive)	> 100 µM (inactive)	
COc1ccc(N2C(=O)CC(C3CC(C(C)(C)C)CCC3=O)C2=O)cc1 (stereo not drawn)	> 100 µM (inactive)	> 100 µM (inactive)	> 100 µM (inactive)	> 100 µM (inactive)	> 100 µM (inactive)		> 100 µM (inactive)	> 100 µM (inactive)	> 100 µM (inactive)		> 100 µM (inactive)	> 100 µM (inactive)		> 100 µM (inactive)	> 100 µM (inactive)	> 100 µM (inactive)	> 100 µM (inactive)	> 100 µM (inactive)	> 100 µM (inactive)	> 100 µM (inactive)
Cc1cc2c(c(S(=O)(=O)c3ccc(Cl)cc3[N+](=O)[O-])c1)NCCC2			94.4 µM (inactive)	> 10 µM (inactive)	50.9 µM (inactive)		66.1 µM (inactive)	> 100 µM (inactive)	> 100 µM (inactive)	5.57 µM (inactive)	59.6 µM (inactive)	> 100 µM (inactive)	> 100 µM (inactive)	> 100 µM (inactive)	> 100 µM (inactive)	> 100 µM (inactive)	> 100 µM (inactive)	> 100 µM (inactive)	> 100 µM (inactive)	12.2 µM (inactive)
CC(C)CC(Nc1c(O)ccc2ccccc12)C(=O)O (stereo not drawn)	21.2 µM (inactive)	0.959 µM (active)	19.2 µM (inactive)	34.2 µM (inactive)	83.9 µM (inactive)		81.8 µM (inactive)	21.6 µM (inactive)	32.7 µM (inactive)	31.7 µM (inactive)	41.2 µM (inactive)	25.4 µM (inactive)	15.2 µM (inactive)	16.7 µM (inactive)	27.2 µM (inactive)	32.3 µM (inactive)	34.4 µM (inactive)	29.8 µM (inactive)	27.6 µM (inactive)	28.1 µM (inactive)
COc1ccc(Cn2c(=O)c(OS(=O)(=O)C(F)(F)F)c(C)c3cc4ccccc4cc32)cc1	> 100 µM (inactive)	> 100 µM (inactive)	> 100 µM (inactive)	> 100 µM (inactive)	> 100 µM (inactive)		> 100 µM (inactive)	> 100 µM (inactive)	> 100 µM (inactive)	> 100 µM (inactive)	> 100 µM (inactive)	> 100 µM (inactive)	86.1 µM (inactive)	> 100 µM (inactive)	> 100 µM (inactive)	> 100 µM (inactive)	> 100 µM (inactive)	> 100 µM (inactive)	> 100 µM (inactive)	> 100 µM (inactive)
C[N+]1(C)C2CC(OC(=O)C(CO)c3ccccc3)CC1C1OC12 (stereo not drawn)	> 100 µM (inactive)	> 100 µM (inactive)	> 100 µM (inactive)	> 100 µM (inactive)	> 100 µM (inactive)		> 100 µM (inactive)	> 100 µM (inactive)	> 100 µM (inactive)	> 100 µM (inactive)	> 100 µM (inactive)	> 100 µM (inactive)	> 100 µM (inactive)	> 100 µM (inactive)	> 100 µM (inactive)	> 100 µM (inactive)	> 100 µM (inactive)	> 100 µM (inactive)	> 100 µM (inactive)	> 100 µM (inactive)
N#CSc1[nH]cnc1C(N)=O	> 44.4 µM (inactive)	5.21 µM (inactive)	> 100 µM (inactive)	2.8 µM (inactive)	> 100 µM (inactive)	> 100 µM (inactive)	> 100 µM (inactive)	> 100 µM (inactive)	> 100 µM (inactive)	41.3 µM (inactive)		55.7 µM (inactive)	17.4 µM (inactive)	77.3 µM (inactive)	> 100 µM (inactive)	> 100 µM (inactive)	90.6 µM (inactive)	> 95.9 µM (inactive)	> 93.5 µM (inactive)	< 0.01 µM (active)
CC(C)=NN/C(=N\c1ccc(Cl)cc1)NS(=O)(=O)c1cc2ccccc2s1	97.9 µM (inactive)	40.4 µM (inactive)	> 100 µM (inactive)	29.2 µM (inactive)	> 100 µM (inactive)	38.9 µM (inactive)	63.1 µM (inactive)	> 100 µM (inactive)	34.2 µM (inactive)	77.3 µM (inactive)	53 µM (inactive)	> 100 µM (inactive)	89.9 µM (inactive)				> 100 µM (inactive)	> 100 µM (inactive)	30.5 µM (inactive)	
Cc1ccc(-c2nc3n(c2/C=N\N=C(N)N)CCS3)cc1	17.9 µM (inactive)	22.1 µM (inactive)	13.8 µM (inactive)	33.3 µM (inactive)	15 µM (inactive)	19.4 µM (inactive)	14 µM (inactive)	18.1 µM (inactive)	15 µM (inactive)	16.7 µM (inactive)		16.3 µM (inactive)	17.3 µM (inactive)	15.2 µM (inactive)	15.3 µM (inactive)	10.9 µM (inactive)	15.7 µM (inactive)	14.9 µM (inactive)	16.7 µM (inactive)	59 µM (inactive)
O=C1Oc2ccccc2C(=O)/C1=C/N1C(=O)CNC1=S	> 100 µM (inactive)	80.2 µM (inactive)	> 100 µM (inactive)	44 µM (inactive)	> 100 µM (inactive)		> 100 µM (inactive)	> 100 µM (inactive)	> 100 µM (inactive)	> 100 µM (inactive)	> 100 µM (inactive)	> 100 µM (inactive)		> 100 µM (inactive)	95.1 µM (inactive)		> 100 µM (inactive)	> 100 µM (inactive)	23 µM (inactive)	
O=C(O)C1Cc2ccccc2OC1=O (stereo not drawn)	> 100 µM (inactive)		> 100 µM (inactive)		> 100 µM (inactive)		> 100 µM (inactive)	> 100 µM (inactive)	> 100 µM (inactive)		> 100 µM (inactive)	> 100 µM (inactive)	> 100 µM (inactive)	> 100 µM (inactive)	> 100 µM (inactive)		> 100 µM (inactive)	> 100 µM (inactive)	> 100 µM (inactive)	> 100 µM (inactive)
COc1ccc(/C=N/Nc2nnc3c(n2)c2ccccc2c2nn(-c4ccccc4Cl)nc23)cc1	> 100 µM (inactive)	> 100 µM (inactive)	> 100 µM (inactive)		> 100 µM (inactive)	> 100 µM (inactive)	> 100 µM (inactive)	71.6 µM (inactive)	> 100 µM (inactive)	> 100 µM (inactive)		> 100 µM (inactive)	> 100 µM (inactive)		> 100 µM (inactive)	> 100 µM (inactive)	> 100 µM (inactive)	> 100 µM (inactive)	> 100 µM (inactive)	
O=C(/C=C1\Nc2ccccc2N=C1NC12CC3CC(CC(C3)C1)C2)c1ccc(Br)cc1	> 10 µM (inactive)	> 10 µM (inactive)	> 10 µM (inactive)	> 10 µM (inactive)	> 10 µM (inactive)		> 10 µM (inactive)	> 10 µM (inactive)	> 10 µM (inactive)	> 10 µM (inactive)	> 10 µM (inactive)	> 10 µM (inactive)	> 10 µM (inactive)	> 10 µM (inactive)	> 10 µM (inactive)	> 10 µM (inactive)	> 10 µM (inactive)	> 10 µM (inactive)	> 10 µM (inactive)	
N=c1oc2ccc3ccccc3c2cc1C(N)=O	43.5 µM (inactive)	35.9 µM (inactive)	71 µM (inactive)	39.2 µM (inactive)	48.3 µM (inactive)	53 µM (inactive)	38.7 µM (inactive)	15.6 µM (inactive)	21.6 µM (inactive)	31.2 µM (inactive)		25.9 µM (inactive)			96.2 µM (inactive)	71.9 µM (inactive)	44 µM (inactive)	94.6 µM (inactive)		34 µM (inactive)
CCCC/C=C/C/C=C/CCCCCCCCC(=O)OCC1CCCN2CCCCC12 (stereo not drawn)	31 µM (inactive)	28.5 µM (inactive)	> 100 µM (inactive)	17.3 µM (inactive)	> 100 µM (inactive)	31.7 µM (inactive)	> 100 µM (inactive)	> 100 µM (inactive)		76.9 µM (inactive)	> 100 µM (inactive)	> 100 µM (inactive)	87.5 µM (inactive)	> 100 µM (inactive)	> 100 µM (inactive)	> 100 µM (inactive)	> 100 µM (inactive)	> 100 µM (inactive)	59.4 µM (inactive)	
COc1ccc(/C=C2/S/C(=N\c3ccccc3)N(NC(=O)Cc3ccccc3)C2=O)c(OC)c1		82.6 µM (inactive)	> 100 µM (inactive)		> 100 µM (inactive)	3.37 µM (inactive)	> 100 µM (inactive)	> 100 µM (inactive)	> 100 µM (inactive)		> 100 µM (inactive)	69 µM (inactive)		> 100 µM (inactive)	> 100 µM (inactive)	> 100 µM (inactive)	> 100 µM (inactive)	> 100 µM (inactive)	98.9 µM (inactive)	

Reference: ChEMBL document CHEMBL1201862, “PubChem BioAssay data set” (2004)
